In ChEMBL document CHEMBL1140658, “Inhibitors of anthrax lethal factor” (Bioorg Med Chem Lett, 2007):
Calls of active or inactive are those of the source. No cut-off for these calls is given here.

How the values were obtained:
J774.A1 [1] = assay: Cytotoxicity against J774A.1 cells assessed as cell viability at 30 uM after 4 hrs by MTT assay; assay type: functional, cell-based; conditions: Mus musculus
J774.A1 [2] = assay: Inhibition of anthrax lethal factor induced J774A.1 cell death at 20 uM by MTT assay; assay type: functional, Mus musculus; design: scale not given: the % may be the effect or the level left
J774.A1 [3] = assay: Inhibition of anthrax lethal factor induced J774A.1 cell death at 85 uM by MTT assay; assay type: functional, cell-based; conditions: Mus musculus
Lethal factor = target: T1, Lethal factor (Bacillus anthracis, UniProt P15917); assay: Inhibition of anthrax lethal factor by FRET assay
T1 sequence (P15917 whole entry): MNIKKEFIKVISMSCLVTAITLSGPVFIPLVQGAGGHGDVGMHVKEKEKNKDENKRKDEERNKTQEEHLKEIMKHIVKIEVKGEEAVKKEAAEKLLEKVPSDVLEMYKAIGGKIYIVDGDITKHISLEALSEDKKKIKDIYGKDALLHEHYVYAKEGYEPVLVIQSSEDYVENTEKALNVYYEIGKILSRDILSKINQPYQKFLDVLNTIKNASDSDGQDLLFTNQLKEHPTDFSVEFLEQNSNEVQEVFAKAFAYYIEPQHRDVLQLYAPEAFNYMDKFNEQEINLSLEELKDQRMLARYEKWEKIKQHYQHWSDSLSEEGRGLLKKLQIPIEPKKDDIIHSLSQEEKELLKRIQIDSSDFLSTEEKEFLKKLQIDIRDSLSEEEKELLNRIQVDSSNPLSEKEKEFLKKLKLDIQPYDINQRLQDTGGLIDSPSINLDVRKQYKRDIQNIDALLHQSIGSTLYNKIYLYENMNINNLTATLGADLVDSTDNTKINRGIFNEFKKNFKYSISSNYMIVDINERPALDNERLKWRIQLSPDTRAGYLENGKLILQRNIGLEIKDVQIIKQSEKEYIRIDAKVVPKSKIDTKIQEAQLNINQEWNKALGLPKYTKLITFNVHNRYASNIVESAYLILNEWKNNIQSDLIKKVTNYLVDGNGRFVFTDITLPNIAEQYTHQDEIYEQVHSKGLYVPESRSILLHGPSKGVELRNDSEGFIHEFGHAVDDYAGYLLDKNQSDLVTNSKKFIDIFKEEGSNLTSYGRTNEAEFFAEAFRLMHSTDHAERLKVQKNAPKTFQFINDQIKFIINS

J774.A1 [4] = assay: Inhibition of anthrax lethal factor induced J774A.1 cell death by MTT assay; assay type: functional, cell-based; conditions: Mus musculus
J774.A1 [5] = assay: Cytotoxicity against J774A.1 cells assessed as cell viability upto 30 uM after 4 hrs by MTT assay; assay type: functional, cell-based; conditions: Mus musculus
[6] = target: T2, Lethal factor (Bacillus anthracis) (UniProt P15917); assay: (§1) Inhibition of anthrax lethal factor upto 100 uM by FRET assay
T2 sequence (whole entry): T1 sequence (P15917 whole entry)

[7] = target: T2, Lethal factor (Bacillus anthracis); assay: as §1; remark: listed apart in the source

Q: Which results are given for `CCCCCCCC/C=C\CCCCCCCC(=O)NCCc1cc(O)c(O)c(O)c1`?
A: Activity (J774.A1 [1]): inactive; Activity (J774.A1 [2]): 46%; Activity (J774.A1 [3]): inactive; IC50 (Lethal factor): 13 µM; Ki (Lethal factor): 1.7 µM

Q: How did the IC50 (Lethal factor) turn out when `CCCCCCCC/C=C\CCCCCCCC(=O)NCCc1ccc(C(=O)NO)cc1` was run?
A: 32 µM

Q: What about the Ki (Lethal factor) of the same compound?
A: 6 µM

Q: `CCCCCCCC/C=C\CCCCCCCC(=O)NCCc1ccc(O)c(O)c1` [OLEOYL DOPAMINE] was tested. Which IC50 (J774.A1 [4]) did it give?
A: 5 µM

Q: And the IC50 (Lethal factor)?
A: 15 µM

Q: What about the Ki (Lethal factor) of the same compound?
A: 3 µM

Q: And the Activity (J774.A1 [5])?
A: Not toxic

Q: Which IC50 (Lethal factor) does the source give for `CCCCCCCC/C=C\CCCCCCCC(=O)NCCc1cc(O)c(O)cc1O` here?
A: 70 µM

Q: What does the source list for `CCCCCCCC/C=C\CCCCCCCC(=O)NCCc1ccc(O)cc1`?
A: Activity [6]: inactive; Activity [7]: inactive

Q: Which results are given for `CCCCCCCC/C=C\CCCCCCCC(=O)NCCc1ccc(OC)c(OC)c1`?
A: Activity [6]: inactive; Activity [7]: inactive
